Reference: US20240174727A1, “LONG-ACTING NATRIURETIC PEPTIDES AND USES THEREOF” (Eli Lilly and Company, priority 2022, published 2024)
Numbered stars: 1 amine (or outer) side, 2 acyl side, 3 side chain; on linkers, the order of the positions; unused ones are H or OH. Bridge positions count the residues as written; N and C are the ends. Square brackets hold non-standard residues; d marks the D form. * marks the point of attachment. PEG24 = NCCOCCOCCOCCOCCOCCOCCOCCOCCOCCOCCOCCOCCOCCOCCOCCOCCOCCOCCOCCOCCOCCOCCOCCOCCC(=O)O; C20 diacid = O=C(O)CCCCCCCCCCCCCCCCCCC(=O)*; γGlu = O=C(O)[C@H](CCC(=O)[*:2])N[*:1]; CH2 = C([*:1])[*:2]; βAla = NCCC(=O)O

System: plasma cGMP
Assay: In vivo monkey studies, plasma cGMP ELISA
Design: species or system male cynomolgus monkeys
Details: for Net cGMP (nM) Change from Baseline 0.083 h: 0.083 h postdose; for Net cGMP (nM) Change from Baseline 0.083 h / Net cGMP (nM) Change from Baseline 0.25 h / Net cGMP (nM) Change from Baseline 0.5 h / Net cGMP (nM) Change from Baseline 1 h / Net cGMP (nM) Change from Baseline 2 h / Net cGMP (nM) Change from Baseline 4 h / Net cGMP (nM) Change from Baseline 8 h / Net cGMP (nM) Change from Baseline 12 h / Net cGMP (nM) Change from Baseline 24 h / Net cGMP (nM) Change from Baseline 36 h / Net cGMP (nM) Change from Baseline 48 h / Net cGMP (nM) Change from Baseline 72 h / Net cGMP (nM) Change from Baseline 96 h / Net cGMP (nM) Change from Baseline 120 h / Net cGMP (nM) Change from Baseline 144 h / Net cGMP (nM) Change from Baseline 168 h: monkey plasma; for Net cGMP (nM) Change from Baseline 0.25 h: 0.25 h postdose; for Net cGMP (nM) Change from Baseline 0.5 h: 0.5 h postdose; for Net cGMP (nM) Change from Baseline 1 h: 1 h postdose; for Net cGMP (nM) Change from Baseline 2 h: 2 h postdose; for Net cGMP (nM) Change from Baseline 4 h: 4 h postdose; for Net cGMP (nM) Change from Baseline 8 h: 8 h postdose; for Net cGMP (nM) Change from Baseline 12 h: 12 h postdose; for Net cGMP (nM) Change from Baseline 24 h: 24 h postdose; for Net cGMP (nM) Change from Baseline 36 h: 36 h postdose; for Net cGMP (nM) Change from Baseline 48 h: 48 h postdose; for Net cGMP (nM) Change from Baseline 72 h: 72 h postdose; for Net cGMP (nM) Change from Baseline 96 h: 96 h postdose; for Net cGMP (nM) Change from Baseline 120 h: 120 h postdose; for Net cGMP (nM) Change from Baseline 144 h: 144 h postdose; for Net cGMP (nM) Change from Baseline 168 h: 168 h postdose; for net cGMP levels (result in words): monkeys, single SC dose, plasma
Procedure: In vivo monkey studies were conducted as described in detail below. Young adult-to-adult male cynomolgus monkeys were given a single dose subcutaneously (SC). Blood was collected predose and at various pre-determined timepoints throughout the study period. Aliquot of cynomolgus monkey plasma was received for cyclic cGMP (cGMP) measurement and stored at −80° C. prior to use.
Control plasma was made for determining the recovery rate of spike-in cGMP using Enzo cGMP complete ELISA kit (Enzo Life Sciences, Inc, Farmingdale, NY, cat no. ADI-901-164). Briefly, blood from male Sprague Dawley rats (Inotiv, Indianapolis, IN), about 7 months old, was collected in a BD Vacutainer EDTA tube (Becton Dickinson, Franklin Lakes, NJ, cat no. BD-367856) with volume of approximate 4 mL through retro orbital bleeding. Plasma was prepared by spinning the tube in an Eppendorf Refrigerated Centrifuge 5810R (Brinkman Instruments, Inc, Westbury, NY) at 3500 rpm (3000×g) for 10 min at 4° C. Plasma was collected as Positive Control plasma. Cyclic GMP (cGMP standard from Enzo cGMP complete ELISA kit) was added to the positive control plasma at a final concentration of additional 40 nM. Positive Control and Spiked-in Control plasma were aliquoted and stored at −80° C.
The cGMP content was measured using the Enzo cGMP complete ELISA kit following the manufacturer's directions with modifications as described below. The cGMP standards provided in the kit were diluted 1:3 ranging from 50 nM to 0.023 nM in 1× assay buffer that was diluted in water from 2× assay buffer provided in the kit. The cGMP standards ([…]) were transferred to a 96-well polypropylene plate (Thermo Scientific, cat no. 442587).
Plasma samples were thawed from −80° C. and diluted 1:20 in 1× assay buffer in the above plate with a final volume of 150 μL. Assay buffer was added (150 μL) for both a non-specific binding control (in the absence of cGMP antibody) and a maximum binding control (in the absence of competing cGMP) in duplicate wells. Positive Control and Spiked-in Control plasma were diluted 1:20 in 1× assay buffer with a final volume of 150 μL in duplicate wells of the above plate. All diluted plasma was mixed by pipetting up and down several times.
Acetylation reagent mix was prepared by adding 1-part of acetic anhydride into 2-parts of triethylamine provided in the kit and mixing well using Vortex (Scientific Industries, Inc, Bohemia, NY). All controls, standards, and plasma samples were acetylated by adding 15 μL of acetylation reagent mix into the plate, one column at a time, and shaking for 1 min on a Titer Plate Shaker (Lab-Line Instrument, Inc., Melrose Park, IL) at room temperature. The plate was shaken for an additional 1 min following the acetylation of the last column to ensure the reaction was completed.
Acetylated controls, standard and plasma samples were transferred (100 μL) to an ELISA plate (n=1). Then 50 μL of cGMP conjugate were added to each well followed by the addition of 50 μL cGMP antibody to each well except for two non-specific binding wells, in which 50 μL of 1× assay buffer were added. The plate was then sealed and shaken for 2 h at room temperature on the plate shaker. Following this incubation, the plate was washed five times using 200 μL of 1× wash buffer diluted in water from 5× wash buffer provided in the kit. Then, 200 μL of para-Nitrophenylphosphate (pNpp) were added to each well. The plate was sealed with a new plate sealer and shaken in dark for 1 h at room temperature on the plate shaker. Finally, 50 μL of stop solution were added to each well to stop the enzyme reaction. The plate was then read at 405 nm using SpectraMax Plus (Molecular Devices, San Jose, CA).
The mean absorbance at 405 nm (O.D. 405 nm) for the non-specific binding controls was subtracted from the O.D. 405 nm of all samples. The subtracted O.D. 405 nm of all samples were then normalized with the mean subtracted O.D. 405 nm of the maximum binding controls as B/B0%. […]

(BFAEN2-γGlu)-KEKEKG-PEG24-EK-βAla-RSS[CFGGKIDRIGHYSGLGC]PSFRHGSPSSGAPPPS-NH2 (EKXRSSCFGGKIDRIGHYSGLGCPSFRHGSPSSGAPPPS; BFAEN2-γGlu, PEG24, C-terminal amide; MOD_RES 1 N-terminal modified with (BFAEN2-beta-Ala)-KEKEKG-PEG24-; wherein BFAEN2 is Bifurcated Fatty Acid Enantiomer 2; SITE 3 X at position 3 is beta-Alanine; MOD_RES 39 Amidation; DISULFID 7..23 Intrachain thioacetal bond) [Example 145]
Net cGMP (nM) Change from Baseline 0.083 h (dose 25 nmol/kg): -0.82 nM
Net cGMP (nM) Change from Baseline 0.25 h (dose 25 nmol/kg): 2.94 nM
Net cGMP (nM) Change from Baseline 0.5 h (dose 25 nmol/kg): 4.37 nM
Net cGMP (nM) Change from Baseline 1 h (dose 25 nmol/kg): 3.19 nM
Net cGMP (nM) Change from Baseline 2 h (dose 25 nmol/kg): 8.88 nM
Net cGMP (nM) Change from Baseline 4 h (dose 25 nmol/kg): 11.23 nM
Net cGMP (nM) Change from Baseline 8 h (dose 25 nmol/kg): 17.87 nM
Net cGMP (nM) Change from Baseline 12 h (dose 25 nmol/kg): 22.09 nM
Net cGMP (nM) Change from Baseline 24 h (dose 25 nmol/kg): 24.61 nM
Net cGMP (nM) Change from Baseline 36 h (dose 25 nmol/kg): 31.53 nM
Net cGMP (nM) Change from Baseline 48 h (dose 25 nmol/kg): 21.81 nM
Net cGMP (nM) Change from Baseline 72 h (dose 25 nmol/kg): 21 nM
Net cGMP (nM) Change from Baseline 96 h (dose 25 nmol/kg): 14.82 nM
Net cGMP (nM) Change from Baseline 120 h (dose 25 nmol/kg): 14.4 nM
Net cGMP (nM) Change from Baseline 144 h (dose 25 nmol/kg): 11.99 nM
Net cGMP (nM) Change from Baseline 168 h (dose 25 nmol/kg): 5.89 nM
net cGMP levels (result in words): increased net cGMP levels

{C20 diacid-γGlu}-EKEKEKG[PEG24]EKPRSSCFGKRIDRIGHQSGLGCPSFRHSGSPSSGAPPPSG-NH2 (linker 15-31 via CH2) [Example 132, HOOC-(CH2)18-CO-(γGlu)-EKEKEKG-PEG24-EKPRSS[CFGKRIDRIGHQSGLGCJPSFRHSGSPSSGAPPPSG-NH2]
Net cGMP (nM) Change from Baseline 0.083 h (dose 25 nmol/kg): 2.96 nM
Net cGMP (nM) Change from Baseline 0.25 h (dose 25 nmol/kg): 11.54 nM
Net cGMP (nM) Change from Baseline 0.5 h (dose 25 nmol/kg): 25 nM
Net cGMP (nM) Change from Baseline 1 h (dose 25 nmol/kg): 29.41 nM
Net cGMP (nM) Change from Baseline 2 h (dose 25 nmol/kg): 28.64 nM
Net cGMP (nM) Change from Baseline 4 h (dose 25 nmol/kg): 28.7 nM
Net cGMP (nM) Change from Baseline 8 h (dose 25 nmol/kg): 24.12 nM
Net cGMP (nM) Change from Baseline 12 h (dose 25 nmol/kg): 20.96 nM
Net cGMP (nM) Change from Baseline 24 h (dose 25 nmol/kg): 19.79 nM
Net cGMP (nM) Change from Baseline 36 h (dose 25 nmol/kg): 17.54 nM
Net cGMP (nM) Change from Baseline 48 h (dose 25 nmol/kg): 12.7 nM
Net cGMP (nM) Change from Baseline 72 h (dose 25 nmol/kg): 13.11 nM
Net cGMP (nM) Change from Baseline 96 h (dose 25 nmol/kg): 11.68 nM
Net cGMP (nM) Change from Baseline 120 h (dose 25 nmol/kg): 13.22 nM
Net cGMP (nM) Change from Baseline 144 h (dose 25 nmol/kg): 11.64 nM
Net cGMP (nM) Change from Baseline 168 h (dose 25 nmol/kg): 7.08 nM
net cGMP levels (result in words): increased net cGMP levels

{C20 diacid-γGlu}-EKEKEKG[PEG24]EK[βAla]RSSCFGKRIDRIGHYSGLGCPSFRHGSPSSGAPPPS-NH2 (linker 15-31 via CH2) [Example 106]
Net cGMP (nM) Change from Baseline 0.083 h (dose 100 nmol/kg): 3.54 nM
Net cGMP (nM) Change from Baseline 0.25 h (dose 100 nmol/kg): 19.8 nM
Net cGMP (nM) Change from Baseline 0.5 h (dose 100 nmol/kg): 25.25 nM
Net cGMP (nM) Change from Baseline 1 h (dose 100 nmol/kg): 24.83 nM
Net cGMP (nM) Change from Baseline 2 h (dose 100 nmol/kg): 26.38 nM
Net cGMP (nM) Change from Baseline 4 h (dose 100 nmol/kg): 26.16 nM
Net cGMP (nM) Change from Baseline 8 h (dose 100 nmol/kg): 14.03 nM
Net cGMP (nM) Change from Baseline 12 h (dose 100 nmol/kg): 17.64 nM
Net cGMP (nM) Change from Baseline 24 h (dose 100 nmol/kg): 9.38 nM
Net cGMP (nM) Change from Baseline 36 h (dose 100 nmol/kg): 12.13 nM
Net cGMP (nM) Change from Baseline 48 h (dose 100 nmol/kg): 8.71 nM
Net cGMP (nM) Change from Baseline 72 h (dose 100 nmol/kg): 5.67 nM
Net cGMP (nM) Change from Baseline 96 h (dose 100 nmol/kg): 6.4 nM
Net cGMP (nM) Change from Baseline 120 h (dose 100 nmol/kg): 7.88 nM
Net cGMP (nM) Change from Baseline 144 h (dose 100 nmol/kg): 7.54 nM
Net cGMP (nM) Change from Baseline 168 h (dose 100 nmol/kg): 7.66 nM
net cGMP levels (result in words): increased net cGMP levels
